Laboratory results: patent US6911469B2, “Sulfonamide compounds and pharmaceutical use thereof” (Fujisawa Pharmaceutical Co., Ltd., priority 1997, dated 2005)

Structure (SMILES) | melting point [°C]
Cc1cc(C(=O)NS(=O)(=O)c2ccc(Br)s2)nc2c1nc(C)n2Cc1ccc2ccccc2c1Br [Example 112, 3-(1-bromonaphthalen-2-ylmethyl)-5-((5-bromothiophene-2-yl)sulfonylcarbamoyl)-2,7-dimethyl-3H-imidazo[4,5-b]pyridine] | 247 to 248
Cc1nc2ccc(C(=O)NS(=O)(=O)c3ccccc3)nc2n1Cc1ccc(C=C2SC(=O)NC2=O)cc1Cl [Example 93, 5-(benzenesulfonylcarbamoyl)-3-[2-chloro-4-[(2,4-dioxo-1,3-thiazolidine-5-ylidene)methyl]benzyl]-2-methyl-3H-imidazo[4,5-b]pyridine] | 271 to 274
Cc1nc2ccc(C(=O)NS(=O)(=O)c3ccccc3)nc2n1Cc1ccc(-c2ccc(Cl)s2)cc1Cl [Example 69, 5-(benzenesulfonylcarbamoyl)-3-[2-chloro-4-(5-chlorothiophene-2-yl)benzyl]-2-methyl-3H-imidazo[4,5-b]pyridine] | 215 to 217
Cc1nc2ccc(C(=O)NS(=O)(=O)c3ccccc3)nc2n1Cc1ccc(CCc2ccccc2)cc1Cl [Example 113, 5-(benzenesulfonylcarbamoyl)-3-(2-chloro-4-(2-phenylethyl)benzyl)-2-methyl-3H-imidazo[4,5-b]pyridine] | 180 to 181
Cc1nc2ccc(C(=O)NS(=O)(=O)c3ccccc3)nc2n1Cc1ccc([S+](C)[O-])cc1Cl (stereo not shown) [Example 84, 5-(benzenesulfonylcarbamoyl)-3-(2-chloro-4-(methylsulfinyl)benzyl)-2-methyl-3H-imidazo[4,5-b]pyridine] | 230 to 231
CCOC(=O)c1ccc(Cn2c(C)nc3ccc(C(=O)NS(=O)(=O)c4ccccc4)nc32)c(Cl)c1 [Example 119, 5-(benzenesulfonylcarbamoyl)-3-(2-chloro-4-(ethoxycarbonyl)benzyl)-2-methyl-3H-imidazo[4,5-b]pyridine] | 196 to 197
Cc1nc2ccc(C(=O)NS(=O)(=O)c3ccccc3)nc2n1Cc1ccc(C#N)cc1Cl [Example 108, 5-(benzenesulfonylcarbamoyl)-3-(2-chloro-4-cyanobenzyl)-2-methyl-3H-imidazo[4,5-b]pyridine] | 242 to 243
CCCCS(=O)(=O)NC(=O)c1ccc2c(c1)n(Cc1ccc(Cl)cc1Cl)c(=O)c(=O)n2C [Example 50, 7-(1-n-butanesulfonyl-carbamoyl)-1-(2,4-dichlorobenzyl)-4-methyl-2,3-(1H, 4H)-quinoxalinedione] | 243 to 246
Cc1cc(C(=O)NS(=O)(=O)/C=C/c2ccccc2)nc2c1nc(C)n2Cc1ccc(-c2ccc(Cl)s2)cc1Cl [Example 196, 3-[2-chloro-4-(5-chlorothiophen-2-yl)benzyl]-2,7-dimethyl-5-[(E)-(2-phenylethenyl)sulfonylcarbamoyl]-3H-imidazo[4,5-b]pyridine] | 224 to 225
Cc1nc2ccc(C(=O)NS(=O)(=O)c3ccccc3)cn2c1Cc1ccc(Cl)cc1Cl [Example 56, 6-(benzenesulfonylcarbamoyl)-3-(2,4-dichlorobenzyl)-2-methylimidazo[1,2-a]pyridine] | 308 to 310
CCCCCS(=O)(=O)NC(=O)c1cc(C)c2nc(CC)n(Cc3ccc(-c4ccccc4)cc3)c2n1 [Example 16, 2-ethyl-7-methyl-5-(n-pentanesulfonylcarbamoyl)-3-(4-phenylbenzyl)-3H-imidazo[4,5-b]pyridine] | 210 to 211
CCCCCS(=O)(=O)NC(=O)c1cc(C)c2nc(C)n(Cc3ccc(-c4ccccc4)cc3Cl)c2n1 [Example 184, 3-(2-chloro-4-phenylbenzyl)-2,7-dimethyl-5-(1-pentanesulfonylcarbamoyl)-3H-imidazo[4,5-b]pyridine] | 227 to 228
Cc1nc2ccc(C(=O)NS(=O)(=O)c3ccccc3)nc2n1Cc1ccc(CC2CCCCC2)cc1Cl [Example 75, 5-(benzenesulfonylcarbamoyl)-3-(2-chloro-4-(cyclohexylmethyl)benzyl)-2-methyl-3H-imidazo[4,5-b]pyridine] | 170 to 171
CSc1ccc(Cn2c(C)nc3ccc(C(=O)NS(=O)(=O)c4ccccc4)nc32)c(Cl)c1 [Example 83, 5-(benzenesulfonylcarbamoyl)-3-(2-chloro-4-(methylthio)benzyl)-2-methyl-3H-imidazo[4,5-b]pyridine] | 165 to 166
CCCCCS(=O)(=O)NC(=O)c1ccc2sc(C)c(Cc3cc(Cl)ccc3Cl)c2c1 [Example 3, 3-(2,5-dichlorobenzyl)-2-methyl-5-(n-pentanesulfonylcarbamoyl)benzo[b]thiophene] | 147 to 148
CCCCCS(=O)(=O)NC(=O)c1cc(C)c2nc(C)n(Cc3ccc(Br)cc3Cl)c2n1 [Example 105, 3-(4-bromo-2-chlorobenzyl)-2,7-dimethyl-5-(pentanesulfonylcarbamoyl)-3H-imidazo[4,5-b]pyridine] | 148 to 149
Cc1nc2ccc(C(=O)NS(=O)(=O)c3ccccc3)nc2n1Cc1ccc(/C=C/c2ccccc2)cc1Cl [Example 76, (E)-5-(benzenesulfonylcarbamoyl)-3-(2-chloro-4-(2-phenylethenyl)benzyl)-2-methyl-3H-imidazo[4,5-b]pyridine] | 262 to 263
Cc1nc2ccc(C(=O)NS(=O)(=O)c3ccccc3)nc2n1Cc1ccc(COc2ccccc2)cc1Cl [Example 118, 5-(benzenesulfonylcarbamoyl)-3-(2-chloro-4-((phenyloxy)methyl)-benzyl)-2-methyl-3H-imidazo[4,5-b]pyridine] | 203 to 205
Cc1cc(C(=O)NS(=O)(=O)c2ccc(Br)s2)nc2c1nc(C)n2Cc1ccc(-c2ccccc2)cc1Cl [Example 186, 5-[(5-bromothiophen-2-yl)sulfonylcarbamoyl]-3-(2-chloro-4-phenylbenzyl)-2,7-dimethyl-3H-imidazo[4,5-b]pyridine] | 243 to 244

Further lines, results first:

melting point [°C] | Structure (SMILES)
262 to 263 | Cc1cc(C(=O)NS(=O)(=O)/C=C/c2ccccc2)nc2c1nc(C)n2Cc1ccc2ccccc2c1Br [Example 104-3, (E)-3-(1-bromonaphthalen-2-ylmethyl)-2,7-dimethyl-5-((2-phenylethenyl)sulfonylcarbamoyl)-3H-imidazo[4,5-b]pyridine]
165 to 166 | CCCCS(=O)(=O)NC(=O)c1ccc2nc(C)n(Cc3ccc(Br)cc3Cl)c2n1 [Example 12-2, 3-(4-bromo-2-chlorobenzyl)-5-(n-butanesulfonylcarbamoyl)-2-methyl-3H-imidazo[4,5-b]pyridine]
229 to 230 | Cc1cc(C(=O)NS(=O)(=O)c2ccccc2)nc2c1nc(C)n2Cc1ccc2ccccc2c1Br [Example 104-2, 5-(benzenesulfonylcarbamoyl)-3-(1-bromonaphthalen-2-ylmethyl)-2,7-dimethyl-3H-imidazo[4,5-b]pyridine]
208.5 to 209.5 | Cc1oc2ccc(C(=O)NS(=O)(=O)c3ccccc3)cc2c1Cc1ccc(Cl)cc1Cl [Example 30-2, 5-(benzenesulfonylcarbamoyl)-3-(2,4-dichlorobenzyl)-2-methylbenzo[b]furan]
147 to 148 | CCCCCS(=O)(=O)NC(=O)c1ccc2[nH]c(C)c(Cc3ccc(Cl)cc3Cl)c2n1 [Example 26-1, 3-(2,4-dichlorobenzyl)-2-methyl-5-(n-pentanesulfonylcarbamoyl)pyrrolo[3,2-b]pyridine]
183 to 184 | CCCCCS(=O)(=O)NC(=O)c1ccc2nc(C)n(Cc3ccc(Br)cc3Cl)c2n1 [Example 12-1, 3-(4-bromo-2-chlorobenzyl)-2-methyl-5-(n-pentanesulfonylcarbamoyl)-3H-imidazo[4,5-b]pyridine]
> 250 | Cc1[nH]c2ccc(C(=O)NS(=O)(=O)c3ccccc3)nc2c1Cc1ccc(Cl)cc1Cl [Example 26-2, 3-(2,4-dichlorobenzyl)-2-methyl-5-(benzenesulfonylcarbamoyl)pyrrolo[3,2-b]pyridine]
193 to 194 | Cc1nc2ccc(C(=O)NS(=O)(=O)c3ccccc3)nc2n1Cc1ccc(Br)cc1Cl [Example 12-3, 5-(benzenesulfonylcarbamoyl)-3-(4-bromo-2-chlorobenzyl)-2-methyl-3H-imidazo[4,5-b]pyridine]
168 to 170 | CCCCCS(=O)(=O)NC(=O)c1ccc2c(=O)nc(C)n(Cc3ccc(Cl)cc3Cl)c2c1 [Example 47-1, 1-(2,4-dichlorobenzyl)-2-methyl-7-(1-n-pentanesulfonylcarbamoyl)-4(1H)-quinazolinone]
189 to 190 | Cc1nc2ccc(C(=O)NS(=O)(=O)c3ccccc3)nc2n1Cc1ccc(Cl)cc1Br [Example 13-2, 5-(benzenesulfonylcarbamoyl)-3-(2-bromo-4-chlorobenzyl)-2-methyl-3H-imidazo[4,5-b]pyridine]
154 to 155 | CCCCCS(=O)(=O)NC(=O)c1ccc2nc(C)n(Cc3ccc(C(F)(F)F)cc3Cl)c2n1 [Example 102-2, 3-[2-chloro-4-(trifluoromethyl)-benzyl]-2-methyl-5-(1-pentanesulfonylcarbamoyl)-3H-imidazo[4,5-b]pyridine]
216 to 218 | Cc1nc2ccc(C(=O)NS(=O)(=O)/C=C/c3ccccc3)nc2n1Cc1ccc(-c2ccccc2)cc1Cl [Example 67-2, (E)-3-(2-chloro-4-phenylbenzyl)-2-methyl-5-[(2-phenylethenyl)sulfonylcarbamoyl]-3H-imidazo[4,5-b]pyridine]
213 to 214 | Cc1cc(C(=O)NS(=O)(=O)c2ccc(Cl)s2)nc2c1nc(C)n2Cc1ccc2ccccc2c1Br [Example 104-6, 3-(1-bromonaphthalen-2-ylmethyl)-2,7-dimethyl-5-((5-chlorothiophen-2-yl)sulfonylcarbamoyl)-3H-imidazo[4,5-b]pyridine]
181 to 183 | CCc1c(Cc2ccc(Cl)cc2Cl)sc2c(C(=O)NS(=O)(=O)c3ccccc3)cccc12 [Example 38-2, 7-(benzenesulfonylcarbamoyl)-2-(2,4-dichlorobenzyl)-3-ethylbenzo[b]thiophene]
235 to 237 | Cc1cc(Cl)ccc1Cn1c(C)nc2ccc(C(=O)NS(=O)(=O)c3ccccc3)nc21 [Example 28-2, 5-benzenesulfonylcarbamoyl-3-(4-chloro-2-methylbenzyl)-2-methyl-3H-imidazo[4,5-b]pyridine]
